The structures appear in SMILES notation. Like-named read-outs stand apart in the source and are kept apart here. Some results are limits rather than exact numbers.

Common to all, as to assay type: cell-based, human
In one test the test system is platelets. Nature of the test: Agonist-induced platelet granule secretion / activation (P-selectin expression by flow cytometry; ADP/ATP release). Conditions: for Inhibition of PMA-induced platelet responses: even at millimolar concentrations. The protocol:
In order to monitor ATP release, a cocktail of 100 μM SFLLR (synthesized using solid phase Fmoc chemistry on an Applied Biosystems model 430A peptide synthesizer) and 3 mg/ml of luciferin/luciferase (Sigma, St. Louis, Mo.) in a volume of 10 μl is added to 20 μl of PRP. Samples are immediately analyzed for luminescence. Activated platelets supply the ATP necessary for luminescence of the luciferin/luciferase assay. Assays can be performed at high throughput through use of a microtiter plate system, e.g., 384-well plates and a Multidrop 384 (Thermo Labsystems, Helsinki), read with a high density imaging system, e.g., the Tundra system (Imaging Research, St. Catherine's, Ontario).
(§1) In order to assay platelet activation by cell surface marker expression, fresh PRP is isolated from donors who have not ingested aspirin for two weeks prior to donation. PRP (40 μl) is incubated with known or suspected inhibitor in DMSO or DMSO alone for 15 min. The sample is then incubated with the indicated agonist (e.g., SFLLR) for 10 min. Following incubation of the sample with the indicated agonist, 10 μl of reaction mixture is transferred to 5 μl of phycoerythrin (PE)-conjugated AC 1.2 anti-P-selectin antibody (for assessment of P-selectin surface expression) or fluorescein isothiocyanate (FITC)-conjugated PAC-1 antibody (for assessment of GPIIbIIIa activation). PBS (500 μl) is added to the sample after a 20 min incubation and the platelets are analyzed immediately by flow cytometry. Flow cytometry can be performed using, for example, a Becton-Dickinson FACSCalibur flow cytometer or its equivalent. Fluorescent channels are set at logarithmic gain. Ten thousand particles are acquired for each sample. A 530/30 band pass filter is used for FL-1 fluorescence. A 585/42 band pass filter is used for FL-2 fluorescence. FITC is measured in the FL-1 channel and PE is measured in the FL-2 channel. Data are analyzed using, for example, CellQuest software on a Macintosh PowerPC, or their equivalents.
Compounds were tested for the ability to inhibit agonist-induced ADP/ATP release from platelet dense granules using a luciferin-luciferase reporter system. In this assay, compounds were incubated with platelet-rich plasma (PRP) for 30 min. A cocktail of the platelet agonist and luciferin-luciferase was then added to the wells. Plates were immediately analyzed using a Tundra high density luminescence imager. […] As a control, compounds were also screened in a platelet-free assay for the ability to inhibit luciferin-luciferase upon exposure to ATP.
Each of the compounds was tested for inhibition of platelet activation in response to the agonists SFLLR (a thrombin mimic), U46619 (a thromboxane A2 mimic), ADP and the phorbol ester PMA.
(§2) Compounds were also tested by flow cytometry for the inhibition of SFLLR-induced GPIIbIIIa activation and P-selectin expression. In these experiments, freshly obtained PRP was prepared from healthy volunteers who had not ingested aspirin for two weeks prior to donation. Forty μl of PRP was incubated with inhibitor in DMSO or DMSO alone for 15 min. The sample was then incubated with the indicated agonist for 10 min. Following incubation of the sample with the indicated agonist, 10 μl of reaction mixture was transferred to 5 μl of PE-conjugated AC1.2 anti-P-selectin antibody (for assessment of P-selectin surface expression) or FITC-conjugated PAC-1 antibody (for assessment of GPIIbIIIa activation). PBS (500 μl) was added to the sample after a 20 min incubation and the platelets were analyzed immediately by flow cytometry. Flow cytometry was performed using a Becton-Dickinson FACSCalibur flow cytometer. Fluorescent channels were set at logarithmic gain. Ten thousand particles were acquired for each sample. A 530/30 band pass filter was used for FL-1 fluorescence. A 585/42 band pass filter was used for FL-2 fluorescence. FITC was measured in the FL-1 channel and PE was measured in the FL-2 channel.
(In general: In flow cytometry, cells or beads pass a laser one at a time.)

The test system of a further test is platelet GPIIbIIIa. As to the kind of experiment: SFLLR-induced GPIIbIIIa activation (PAC-1 antibody, flow cytometry). As to conditions: Homo sapiens, Platelet; agonist SFLLR; read-out: IC50s of inhibition of platelet GPIIbIIIa activation induced with SFLLR. The protocol:
as §1
as §2, with “channel. Data were analyzed using CellQuest software on a MacIntosh PowerPC.” for “channel.”

Test [1] concerns PGE1-induced cAMP levels in platelets. As to the kind of experiment: Augmentation of PGE1-induced cAMP levels in platelets. Conditions: no single concentration. As for the experimental part:
One frequent target of anti-platelet agents is phosphodiesterase III (PDE III). […] The assay is performed as described by Liao et al., 1998, Eur J Pharmacol 349,107-114, incorporated herein by reference. Briefly, aliquots of PRP are exposed to increasing concentrations of the agent for 20 minutes. The PRP is then challenged with 1 μM PGE1 for 2 min The reaction is stopped by adding 10 mM EDTA, followed immediately by boiling for 2 min. The mixture is cooled to 4° C. and the precipitated protein is pelleted. cAMP content in the supernatant is quantitated using an enzyme immunoassay kit (Pharmacia-Amersham, N.J.) according to the instructions of the manufacturer.
In order to assess whether the compounds useful according to the invention might act through inhibition phosphodiesterase III, each was tested for its effect on PGE1-induced cAMP increase. Determination of platelet cAMP levels was performed as described by Liao et al., 1998, supra. Aliquots of PRP were exposed to increasing concentrations of the indicated compounds for 20 min. PRP was then challenged with 1 μM PGE1 for 2 min. The reaction was stopped with the addition of 10 mM EDTA followed immediately by boiling for 2 min. The mixture was then cooled to 4° C. and the precipitated protein was pelleted. Cyclic AMP content in the supernatant was then quantified using an enzyme immunoassay kit (Pharmacia-Amersham, N.J.) according to the instructions of the manufacturer.
Background: cAMP levels reflect the balance of adenylyl cyclase and phosphodiesterase activity.

Setting [2] is: Homo sapiens, Platelet, agonist ADP, read-out: IC50s of inhibition of platelet granule secretion induced with ADP.
The mark [3] stands for this setting: Homo sapiens, Platelet, agonist PMA, read-out: IC50s of inhibition of platelet granule secretion induced with PMA.
[4] abbreviates: Homo sapiens, Platelet, agonist U-46619, read-out: IC50s of inhibition of platelet granule secretion induced with U-46619.
Where [5] appears, read: Homo sapiens, Platelet, agonist SFLLR, read-out: IC50s of inhibition of platelet granule secretion induced with SFLLR.
[6] abbreviates: Homo sapiens, Platelet, agonists SFLLR and U-46619, read-out: IC50 SFLLR- and U-46619-induced activation.
[7] abbreviates: Homo sapiens, Platelet, agonists U-46619, ADP, PMA, read-out: IC50 U-46619-, ADP-, and PMA-induced platelet responses.
[8] abbreviates: Homo sapiens, Platelet, agonist SFLLRN/SFLLR, human platelets, read-out: IC50 SFLLRN-induced P-selectin expression, flow cytometry.

Turning to `CCOC(=O)C1(C2(O)C(=O)c3ccccc3C2=O)CCCC1=O` (centres unmarked) [1-(2-hydroxy-1,3-dioxo-indan-2-yl)-2-oxo-cyclopentanecarboxylic acid ethyl ester], the IC50 in the test with platelets (setting [2]) is 50 µM; in the test on platelets (setting [3]), above 1000 µM; in the test with platelets (setting [4]), 30 µM; in the test with platelets (setting [5]) it was 50 µM; with platelet GPIIbIIIa, 50 µM. Further, the “Inhibition of PMA-induced platelet responses” value with platelets (agonist PMA) was “no activity”.
Turning to `Cn1cc(/C=N/NC(N)=O)c2ccccc21` [2-[(1-methyl-1H-indol-3-yl)methylene]-hydrazinecarboxamide], the IC50 in the test with platelets (setting [2]) was 1000 µM; with platelets (setting [3]), 1000 µM; in the test on platelets (setting [4]) it was 20 µM; with platelets (setting [6]) it was 20 to 50 µM; in the test with platelets (setting [5]), 50 µM. Besides, the “Effect on ADP- and PMA-induced activation” value in the test with platelets (agonists ADP and PMA) is “little effect”. Further, the “Effect on PGE1-stimulated cAMP levels in platelets” value in test [1] is recorded as “augmented”.
Regarding `O=C1NC(=O)N(c2cccc3ccccc23)C(=O)/C1=C\c1ccco1` [5-(2-furanylmethylene)-1-1-naphthalenyl)-2,4,6(1H, 3H, 5H)-pyrimidinetrione], the IC50 was 60 µM with platelets (Homo sapiens, Platelet, read-out: IC50s of inhibition of platelet granule secretion induced with ADP); 150 µM in the test with platelets (Homo sapiens, Platelet, read-out: IC50s of inhibition of platelet granule secretion induced with PMA); 100 µM in the test on platelets (Homo sapiens, Platelet, read-out: IC50s of inhibition of platelet granule secretion induced with SFLLR); 50 µM in the test with platelets (Homo sapiens, Platelet, read-out: IC50s of inhibition of platelet granule secretion induced with U-46619); 100 µM with platelet GPIIbIIIa.
Take `O=C(CN1CCOCC1)N1c2ccccc2Sc2ccc(C(F)(F)F)cc21` [10H-phenothiazine, 10-(4-morpholinylacetyl)-2-(trifluoromethyl)]: the IC50 with platelets (setting [2]) worked out at 150 µM; with platelets (setting [3]), 85 µM; in the test with platelets (setting [4]), 100 µM; in the test on platelets (setting [5]), 80 µM; in the test with platelet GPIIbIIIa, 50 µM.
Consider `CCCCCn1c2c(c(=N)c3ccccc31)CCC2` [III], for which the IC50 in the test with platelets (setting [7]) was around 500 µM.
Still for that read-out and setting: the same measure for `CCCCn1c2c(c(=N)c3ccccc31)CCC2` [II]: around 500 µM; for `CCCn1c2c(c(=N)c3ccccc31)CCC2` [I]: around 500 µM.
For `CCCn1c2c(c(=N)c3ccccc31)CCC2` [JF081204{3C}], in the test with platelets (setting [8]), the IC50 fell in the range of 2 to 150 µM.
Regarding `CCCCn1c2c(c(=N)c3ccccc31)CCC2` [JF081204{4C}], the IC50 in the test with platelets (setting [8]) fell in the range of 2 to 150 µM.
For `CC1CC(=O)NN=C1c1ccc(Cl)cc1` (centres unmarked) [Structure 9, 6-(4-chlorophenyl)-5-methyl-4,5-dihydro-5 methyl-3(2H)-pyridazinone], in the test on platelets (ADP vs SFLLR and U46619), the “ADP-induced responses inhibited less effectively than SFLLR and U46619 responses” value is “approximately 20 fold”. Also, the IC50 in the test with platelets (setting [2]) came out at 8 µM; in the test with platelets (setting [6]) it was 0.3 µM. The “Inhibition of PMA-induced platelet activation” value with platelets (agonist PMA) is “did not inhibit”.
On to `Nc1cc2cccnc2c2ncccc12` [[1,10]Phenanthroline-5-ylamine], for which the IC50 is 50 µM in the test on platelets (setting [2]); above 1000 µM in the test with platelets (setting [3]); 30 µM in the test with platelets (setting [4]); 50 µM in the test on platelets (setting [5]); 100 µM with platelets (agonist ADP, read-out: IC50s of inhibition of platelet granule secretion induced with ADP); 50 µM in the test on platelet GPIIbIIIa. In addition, in the test with platelets (agonist PMA), the “Inhibition of PMA-induced platelet responses” value was “did not inhibit”. In addition, the “Effect on PGE1-stimulated cAMP levels in platelets” value in test [1] is recorded as “failed to augment”.
`CC(=O)OC(CC(=O)c1ccc(Cl)cc1Cl)C(Cl)(Cl)Cl` (centres unmarked) [acetic acid 3-(2,4-dichlorophenyl)-3-oxo-1-trichloromethyl-propyl ester]: the IC50 with platelets (setting [2]) is 200 µM; in the test on platelets (setting [3]) it was 200 µM; with platelets (setting [4]), 20 µM; in the test with platelets (Homo sapiens, Platelet, agonists ADP and PMA, read-out: IC50 ADP- and PMA-induced activation), around 200 µM; in the test with platelets (setting [6]) it was 20 to 50 µM; in the test with platelets (setting [5]), 50 µM. Also, in the test on platelet GPIIbIIIa, the IC50 came out at 30 µM.

Source of the values: US20070060605A1, “Compositions and methods for inhibiting platelet activation and thrombosis” (priority 2001, published 2007).
